TGI and GI50 data for 16 compounds are collected here from PubChem BioAssay (NCI).

Test systems include HT29 colon; K-562 leukemia; OVCAR-8 ovarian; SF-295 CNS; SK-OV-3 ovarian; SR leukemia; UACC-62 melanoma; SN12C renal; MDA-MB-435; PC-3 prostate.
Test in all cases: growth of human tumour cells (NCI), 48 h

SMILES strings stand for the structures.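 All cell lines were grown in 96-well plates and treated with compound for 48 hours. Abbreviation: GI50, concentration required for 50% inhibition of growth. TGI: total growth inhibition.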 Bounds are passed on as bounds.

For `CC(O[Si](C)(C)C)C1C=CC(C)n2c(=O)n(-c3ccccc3)c(=O)n21` (centres undefined), the TGI in the experiment with HT29 colon, with K-562 leukemia, in the experiment with OVCAR-8 ovarian, with SF-295 CNS, with SK-OV-3 ovarian and in the experiment with SR leukemia was above 100 µM each time. Besides, the TGI in the experiment on UACC-62 melanoma is above 100 µM.

`O=C(c1ccc2c3c(ccc(C(=O)C(F)(F)F)c13)CC2)C(F)(F)F`: the TGI in the experiment on HT29 colon, in the experiment with OVCAR-8 ovarian, in the experiment with SF-295 CNS, in the experiment with SK-OV-3 ovarian, with SN12C renal and in the experiment on SR leukemia was above 100 µM throughout. The compound further gave a TGI with UACC-62 melanoma above 100 µM.

For `ClC[Si]12OCCN(CCO1)CCO2`, the TGI in the experiment on HT29 colon, in the experiment with K-562 leukemia, in the experiment on OVCAR-8 ovarian, in the experiment with SF-295 CNS, in the experiment on SK-OV-3 ovarian and with SN12C renal was above 100 µM in each case. The TGI with SR leukemia and with UACC-62 melanoma was above 100 µM in each case.

As to `Cc1cc2c(cc1C)[n+](=O)c(C(=O)/C=C/c1ccccc1Cl)c(C)n2[O-]`, the TGI in the experiment with HT29 colon was above 100 µM; in the experiment with K-562 leukemia, above 100 µM; in the experiment on OVCAR-8 ovarian, 63.8 µM; in the experiment on SF-295 CNS it was above 100 µM; in the experiment with SK-OV-3 ovarian it was 73.1 µM; in the experiment on SN12C renal, above 100 µM. In the experiment with UACC-62 melanoma, this compound returned a TGI of 35.1 µM.

As to `CN(C)/C=N/c1nc2ncn(CCOC(=O)c3ccccc3)c2c(=O)[nH]1`, the TGI in the experiment on HT29 colon, in the experiment on K-562 leukemia, in the experiment with OVCAR-8 ovarian, in the experiment with SF-295 CNS, with SK-OV-3 ovarian and in the experiment on SN12C renal was above 100 µM each time. Moreover, the TGI in the experiment on SR leukemia and in the experiment on UACC-62 melanoma was above 100 µM in each case.

As for `CN(C)CCC1(C2=CCCC2)CC/C(=C\c2ccccc2)C1=O` (centres undefined), the TGI is 34.4 µM in the experiment with HT29 colon; 46.5 µM in the experiment with K-562 leukemia; 29.6 µM with OVCAR-8 ovarian; 33.6 µM in the experiment on SF-295 CNS; 31.1 µM in the experiment on SN12C renal; above 100 µM in the experiment on SR leukemia. In addition, the TGI in the experiment with UACC-62 melanoma worked out at 26.6 µM.

`CC(C)CC(=O)NS(=O)(=O)c1ccccc1`: the TGI in the experiment on HT29 colon, in the experiment on K-562 leukemia, with OVCAR-8 ovarian, in the experiment on SF-295 CNS, in the experiment on SK-OV-3 ovarian and in the experiment with SN12C renal was above 100 µM in each case. The TGI in the experiment with SR leukemia and in the experiment on UACC-62 melanoma was above 100 µM throughout.

As to `CC1(C)OC(=O)C(=C2CC(c3ccccc3)c3ccccc32)C(=O)O1` (centres undefined), the TGI in the experiment with HT29 colon, in the experiment with K-562 leukemia, in the experiment on OVCAR-8 ovarian, in the experiment on SF-295 CNS, with SK-OV-3 ovarian and with SN12C renal was above 100 µM each time. In the experiment with SR leukemia, this compound came in with a TGI above 100 µM.

`Cc1cc2c(c(N)c1C)C(=O)c1ccccc1C2=O`: the TGI is above 100 µM in the experiment on HT29 colon; above 100 µM in the experiment with K-562 leukemia; above 100 µM in the experiment on OVCAR-8 ovarian; 86.6 µM in the experiment on SF-295 CNS; 49.2 µM in the experiment on SK-OV-3 ovarian; above 100 µM with SN12C renal. Moreover, the TGI is above 100 µM in the experiment with SR leukemia and 35.5 µM with UACC-62 melanoma.

Turning to `CCSc1nc2n(c(=S)n1)CCN2C`, the TGI was 37.2 µM in the experiment on HT29 colon; 79.5 µM with K-562 leukemia; 64.7 µM in the experiment with OVCAR-8 ovarian; 41.2 µM in the experiment with SF-295 CNS; 50.2 µM with SK-OV-3 ovarian; 47.8 µM in the experiment with SN12C renal. The values for the TGI in the experiment with SR leukemia and in the experiment with UACC-62 melanoma were 29.9 µM and 25.8 µM, respectively.

With `CC1=C(c2cc(C(=O)Nc3nccs3)nc(NC#N)n2)Sc2ccccc2N1`, the TGI in the experiment with HT29 colon, with K-562 leukemia, with OVCAR-8 ovarian, in the experiment on SF-295 CNS, in the experiment on SN12C renal and in the experiment on SR leukemia was above 100 µM each time. In the experiment with UACC-62 melanoma, the TGI was above 100 µM.

Turning to `O=C([O-])c1ccccc1Nc1ccccc1[O-].[Ni+3].[OH3+].[OH3+].[OH3+]`, the GI50 in the experiment on HT29 colon, in the experiment with K-562 leukemia, in the experiment on OVCAR-8 ovarian, in the experiment with SF-295 CNS, in the experiment with SK-OV-3 ovarian and with SN12C renal was above 100 µM each time. The GI50 in the experiment on SR leukemia and in the experiment on UACC-62 melanoma was above 100 µM throughout. In addition, the TGI in the experiment on HT29 colon, in the experiment on K-562 leukemia, with OVCAR-8 ovarian, with SF-295 CNS, in the experiment on SK-OV-3 ovarian and in the experiment on SN12C renal was above 100 µM throughout. Moreover, the TGI with SR leukemia and in the experiment with UACC-62 melanoma was above 100 µM each time.

Consider `CC1CCC23COC(=O)C2C(O)CCC3C1(C)CC(O)c1ccoc1` (centres undefined), for which the TGI with HT29 colon, with K-562 leukemia, with OVCAR-8 ovarian, in the experiment with SF-295 CNS, in the experiment with SK-OV-3 ovarian and in the experiment with SN12C renal was above 100 µM throughout. In the experiment on UACC-62 melanoma, this compound came in with a TGI above 100 µM.

As to `O=C1C(N2C(=O)c3ccccc3C2=O)CN1C(COCc1ccccc1)c1ccc(OCc2ccccc2)cc1` (centres undefined), the TGI in the experiment with HT29 colon, with K-562 leukemia, with OVCAR-8 ovarian, with SF-295 CNS, in the experiment on SK-OV-3 ovarian and in the experiment on SN12C renal was above 100 µM each time. For the same compound, the TGI in the experiment on SR leukemia and in the experiment with UACC-62 melanoma was above 100 µM each time.

On to `O=c1[nH]c(/C=C(\O)c2ccncc2)nc2ccccc12`, for which the TGI in the experiment with HT29 colon, with K-562 leukemia, in the experiment on OVCAR-8 ovarian, in the experiment on SF-295 CNS, with SK-OV-3 ovarian and in the experiment on SN12C renal was above 100 µM in each case. For the same compound, the TGI in the experiment with SR leukemia and in the experiment on UACC-62 melanoma was above 100 µM in each case.

Consider `CC1=CC2C(C(C)C)CC1C1C(=O)OC(=O)C21` (centres undefined), for which the TGI with HT29 colon, in the experiment on K-562 leukemia, in the experiment on MDA-MB-435, in the experiment with OVCAR-8 ovarian, in the experiment with PC-3 prostate and with SK-OV-3 ovarian was above 100 µM in each case. For the same compound, the TGI with SN12C renal and in the experiment on UACC-62 melanoma was above 100 µM throughout.
